The results in this text go back to patent publication US11413292B2, “Tricyclic heterocycle compounds useful as HIV integrase inhibitors” (Merck Sharp & Dohme Corp., priority 2018, dated 2022).

The subject of this assay is HIV-1 (H9/IIIB strain) virus. The assay is described as follows: microbe, parasite or virus in culture. It is filed as cell-based. As to conditions: MT4-GFP cells infected with HIV-1 H9/IIIB, inhibition of reproductive ratio.
The mark [1] stands for this setting: 100% normal human serum (NHS) condition, read-out: Viking, IC50 (100% NHS).
Where [2] appears, read: Human immunodeficiency virus 1, IIIB, 0% NHS condition (RPMI 1640), read-out: Viking, IC50 (0% NHS).
The mark [3] stands for this setting: 0% NHS condition (RPMI 1640), read-out: Viking, IC50 (0% NHS).
Where [4] appears, read: 100% normal human serum (NHS) condition, 2,2,2-trifluoroacetate, read-out: Viking, IC50 (100% NHS).

Where two headings read alike, the source gives them in different places.

As a reminder, the IC50 is the midpoint of a concentration-inhibition curve. With `O=C(NCc1c(F)cc(F)cc1F)c1cn2c(c(O)c1=O)C(=O)N1CCCCCN2C1` (single isomer, unassigned) [Example 1A, 9-hydroxy-8,10-dioxo-N-(2,4,6-trifluorobenzyl)-3,4,5,6,8,10-hexahydro-2H-1,7-methanopyrido[1,2-b][1,2,5]triazecine-11-carboxamide], the IC50 runs as follows: under setting [1], 2560 nM; under setting [2], 1.98 nM.

`O=C(NCc1c(F)cc(F)cc1F)c1cn2c(c(O)c1=O)C(=O)N1CCCCCN2C1` (single isomer, unassigned) [Example 1B, 9-hydroxy-8,10-dioxo-N-(2,4,6-trifluorobenzyl)-3,4,5,6,8,10-hexahydro-2H-1,7-methanopyrido[1,2-b][1,2,5]triazecine-11-carboxamide]: the IC50 by setting is: under setting [3], 1 nM; under setting [1], 94.7 nM.

Take `O=C(NCc1ccc(F)cc1F)c1cn2c(c(O)c1=O)C(=O)N1CCCCCCN2C1` (single isomer, unassigned) [Example 3A, N-(2,4-difluorobenzyl)-10-hydroxy-9,11-dioxo-2,3,4,5,6,7,9,11-octahydro-1,8-methanopyrido[1,2-b][1,2,5]triazacycloundecine-12-carboxamide]: the IC50 runs as follows: under setting [1], 589 nM; under setting [2], 2.66 nM.

Consider `O=C(NCc1ccc(F)cc1F)c1cn2c(c(O)c1=O)C(=O)N1CCCCCCN2C1` (single isomer, unassigned) [Example 3B, N-(2,4-difluorobenzyl)-10-hydroxy-9,11-dioxo-2,3,4,5,6,7,9,11-octahydro-1,8-methanopyrido[1,2-b][1,2,5]triazacycloundecine-12-carboxamide], for which the IC50 reads like this: under setting [3], 5.23 nM; under setting [1], 1880 nM.

Turning to `O=C(NCc1ccc(F)cc1F)c1cn2c(c(O)c1=O)C(=O)N1CCOCCN2C1` (single isomer, unassigned) [Example 4A, N-(2,4-difluorobenzyl)-9-hydroxy-8,10-dioxo-2,3,5,6,8,10-hexahydro-1,7-methanopyrido[1,2-e][1,4,5,8]oxatriazecine-11-carboxamide], the IC50 runs as follows: under setting [3], 3.45 nM; under setting [1], 9520 nM.

`O=C(NCc1ccc(F)cc1F)c1cn2c(c(O)c1=O)C(=O)N1CCOCCN2C1` (single isomer, unassigned) [Example 4B, N-(2,4-difluorobenzyl)-9-hydroxy-8,10-dioxo-2,3,5,6,8,10-hexahydro-1,7-methanopyrido[1,2-e][1,4,5,8]oxatriazecine-11-carboxamide]: the half-maximal inhibitory concentration (IC50) under setting [1] was found to be 197 nM and the half-inhibitory concentration (IC50) under setting [2] came to 1.78 nM.

As to `COC1CCN2CN(CC1)n1cc(C(=O)NCc3c(F)cc(F)cc3F)c(=O)c(O)c1C2=O` (single isomer, unassigned) [Example 5A, 9-hydroxy-4-methoxy-8,10-dioxo-N-(2,4,6-trifluorobenzyl)-3,4,5,6,8,10-hexahydro-2H-1,7-methanopyrido[1,2-b][1,2,5]triazecine-11-carboxamide], the concentration for half-maximal inhibition (IC50) was 3.2 nM under setting [3] and 67.2 nM under setting [1].

Take `COC1CCN2CN(CC1)n1cc(C(=O)NCc3c(F)cc(F)cc3F)c(=O)c(O)c1C2=O` (single isomer, unassigned) [Example 5B, 9-hydroxy-4-methoxy-8,10-dioxo-N-(2,4,6-trifluorobenzyl)-3,4,5,6,8,10-hexahydro-2H-1,7-methanopyrido[1,2-b][1,2,5]triazecine-11-carboxamide]: the IC50 reads like this: under setting [3], 1.93 nM; under setting [1], 124 nM.

Regarding `COC1CCN2CN(CC1)n1cc(C(=O)NCc3c(F)cc(F)cc3F)c(=O)c(O)c1C2=O` (single isomer, unassigned) [Example 5C, 9-hydroxy-4-methoxy-8,10-dioxo-N-(2,4,6-trifluorobenzyl)-3,4,5,6,8,10-hexahydro-2H-1,7-methanopyrido[1,2-b][1,2,5]triazecine-11-carboxamide], the IC50 under setting [3] came out at 1.68 nM and the half-maximal inhibitory concentration (IC50) under setting [1] was found to be 62.8 nM.

For `COC1CCN2CN(CC1)n1cc(C(=O)NCc3c(F)cc(F)cc3F)c(=O)c(O)c1C2=O` (single isomer, unassigned) [Example 5D, 9-hydroxy-4-methoxy-8,10-dioxo-N-(2,4,6-trifluorobenzyl)-3,4,5,6,8,10-hexahydro-2H-1,7-methanopyrido[1,2-b][1,2,5]triazecine-11-carboxamide], the half-maximal inhibitory concentration (IC50) by setting is: under setting [3], 5.32 nM; under setting [1], 544 nM.

For the molecule `CN1CCN2CN(CC1)n1cc(C(=O)NCc3c(F)cc(F)cc3F)c(=O)c(O)c1C2=O` (single isomer, unassigned) [Example 6A, 9-hydroxy-4-methyl-8,10-dioxo-N-(2,4,6-trifluorobenzyl)-3,4,5,6,8,10-hexahydro-2H-1,7-methanopyrido[1,2-b][1,2,5,8]tetrazecine-11-carboxamide 2,2,2-trifluoroacetate], the IC50 worked out at 169 nM under setting [4] and 4.64 nM under setting [2].

In the case of `CN1CCN2CN(CC1)n1cc(C(=O)NCc3c(F)cc(F)cc3F)c(=O)c(O)c1C2=O` (single isomer, unassigned) [Example 6B, 9-hydroxy-4-methyl-8,10-dioxo-N-(2,4,6-trifluorobenzyl)-3,4,5,6,8,10-hexahydro-2H-1,7-methanopyrido[1,2-b][1,2,5,8]tetrazecine-11-carboxamide 2,2,2-trifluoroacetate], the concentration for half-maximal inhibition (IC50) runs as follows: (0% NHS condition (RPMI 1640), 2,2,2-trifluoroacetate, read-out: Viking, IC50 (0% NHS)) 2.4 nM; under setting [4], 80.2 nM.

For the molecule `O=C(NCc1c(F)cc(F)cc1F)c1cn2c(c(O)c1=O)C(=O)N1CCC(F)(F)CCN2C1` (single isomer, unassigned) [Example 7A, 4,4-difluoro-9-hydroxy-8,10-dioxo-N-(2,4,6-trifluorobenzyl)-3,4,5,6,8,10-hexahydro-2H-1,7-methanopyrido[1,2-b][1,2,5]triazecine-11-carboxamide], the half-inhibitory concentration (IC50) under setting [3] is 6.1 nM and the IC50 under setting [1] came out at 4460 nM.

In the case of `O=C(NCc1c(F)cc(F)cc1F)c1cn2c(c(O)c1=O)C(=O)N1CCC(F)(F)CCN2C1` (single isomer, unassigned) [Example 7B, 4,4-difluoro-9-hydroxy-8,10-dioxo-N-(2,4,6-trifluorobenzyl)-3,4,5,6,8,10-hexahydro-2H-1,7-methanopyrido[1,2-b][1,2,5]triazecine-11-carboxamide], the IC50 runs as follows: under setting [3], 2.16 nM; under setting [1], 73.9 nM.

For the molecule `O=C(NCc1c(F)cc(F)cc1F)c1cn2c(c(O)c1=O)C(=O)N1CCC(O)CCN2C1` (single isomer, unassigned) [Example 17A], the IC50 under setting [3] was 66.1 nM and the IC50 under setting [1] was 1270 nM.

Regarding `O=C(NCc1c(F)cc(F)cc1F)c1cn2c(c(O)c1=O)C(=O)N1CCC(O)CCN2C1` (single isomer, unassigned) [Example 17B], the half-maximal inhibitory concentration (IC50) turned out to be 7.6 nM under setting [3] and 275 nM under setting [1].

On to `O=C(NCc1c(F)cc(F)cc1F)c1cn2c(c(O)c1=O)C(=O)N1CCC(O)CCN2C1` (single isomer, unassigned) [Example 17C], for which the IC50 by setting is: under setting [3], 184 nM; under setting [1], 5920 nM.

On to `O=C(NCc1c(F)cc(F)cc1F)c1cn2c(c(O)c1=O)C(=O)N1CCC(O)CCN2C1` (single isomer, unassigned) [Example 17D], for which the IC50 reads like this: under setting [3], 25.6 nM; under setting [1], 717 nM.

As to `COC1CCN2CN(CC1)n1cc(C(=O)NCc3cccc(Cl)c3F)c(=O)c(O)c1C2=O` (single isomer, unassigned) [Example 18A], the IC50 by setting is: under setting [3], 3.1 nM; under setting [1], 279 nM.

Regarding `COC1CCN2CN(CC1)n1cc(C(=O)NCc3cccc(Cl)c3F)c(=O)c(O)c1C2=O` (single isomer, unassigned) [Example 18B], the IC50 under setting [3] amounted to 2.5 nM and the half-maximal inhibitory concentration (IC50) under setting [1] came to 435 nM.

Regarding `COC1CCN2CN(CC1)n1cc(C(=O)NCc3cccc(Cl)c3F)c(=O)c(O)c1C2=O` (single isomer, unassigned) [Example 18C], the IC50 is 3.2 nM under setting [3] and 1870 nM under setting [1].

Take `COC1CCN2CN(CC1)n1cc(C(=O)NCc3cccc(Cl)c3F)c(=O)c(O)c1C2=O` (single isomer, unassigned) [Example 18D]: the IC50 is, setting by setting: under setting [3], 1.5 nM; under setting [1], 230 nM.

With `COC1CCN2CN(CC1)n1cc(C(=O)NCc3c(F)ccc(Cl)c3F)c(=O)c(O)c1C2=O` (single isomer, unassigned) [Example 19A], the IC50 reads like this: under setting [3], 1.8 nM; under setting [1], 116 nM.

In the case of `COC1CCN2CN(CC1)n1cc(C(=O)NCc3c(F)ccc(Cl)c3F)c(=O)c(O)c1C2=O` (single isomer, unassigned) [Example 19B], the concentration for half-maximal inhibition (IC50) reads like this: under setting [3], 5.3 nM; under setting [1], 1880 nM.

On to `COC1CCN2CN(CC1)n1cc(C(=O)NCc3c(F)ccc(Cl)c3F)c(=O)c(O)c1C2=O` (single isomer, unassigned) [Example 19C], for which the IC50 by setting is: under setting [3], 3.5 nM; under setting [1], 245 nM.

On to `COC1CCN2CN(CC1)n1cc(C(=O)NCc3c(F)ccc(Cl)c3F)c(=O)c(O)c1C2=O` (single isomer, unassigned) [Example 19D], for which the concentration for half-maximal inhibition (IC50) was 1.5 nM under setting [3] and 300 nM under setting [1].

Regarding `COC1CCN2CN(CC1)n1cc(C(=O)NCc3ccc(F)cc3F)c(=O)c(O)c1C2=O` (single isomer, unassigned) [Example 20A], the IC50 under setting [3] is 3.3 nM and the IC50 under setting [1] was 88 nM.

In the case of `COC1CCN2CN(CC1)n1cc(C(=O)NCc3ccc(F)cc3F)c(=O)c(O)c1C2=O` (single isomer, unassigned) [Example 20B], the 50% inhibitory concentration (IC50) is, setting by setting: under setting [3], 2.8 nM; under setting [1], 371 nM.

Turning to `COC1CCN2CN(CC1)n1cc(C(=O)NCc3ccc(F)cc3F)c(=O)c(O)c1C2=O` (single isomer, unassigned) [Example 20C], the concentration for half-maximal inhibition (IC50) is 7.5 nM under setting [3] and 606 nM under setting [1].
